This is an account of results in patent US20240325548A1, “DYNAMIC BIOACTIVE SCAFFOLDS AND THERAPEUTIC USES THEREOF AFTER CNS INJURY” (Northwestern University, priority 2021, published 2024).

In data set [1] the test system is murine model of severe spinal cord injury (SCI). Nature of the data set: Hindlimb locomotor evaluation after SCI (BMS, footprint analysis). The format is in vivo, mouse. Particulars: three weeks post-injury. The method, then: (§1) All experiments were conducted at the Simpson Querrey Institute at Northwestern University. 182 CD1 mice (Charles River) were subjects of this study (N=38 Sham, N=38 IKVAV PA2 alone, N=38 IKVAV PA2+FGF2 PA1, N=38 IKVAV PA2+FGF2 PA2, N=12 IKVAV PA1, N=12 Backbone PA, N=6 IKVAV PA4). The age of animals used in the study was in the range of 10-16 weeks. 8 independent in vivo experiments were carried out (injury+PA injection) and each of the 8 experiments had animals of the exact same age which were injected with at least the 4 main treatment groups: Sham, IKVAV PA2 alone, IKVAV PA2+FGF2 PA1, and IKVAV PA2+FGF2 PA2. Animals were anesthetized using 2.5% isoflurane gas with oxygen. […]
Mice that passed this inclusion criterion were randomized into experimental groups for PA injection and were thereafter evaluated blind to their experimental condition.
(§2) PAs (dissolved in sterile NaCl 0.9% solution at 1 wt %) were injected 24 h after SCI using a glass capillary micropipette (Sutter Instruments, Novato, CA) (outer diameter, 100 m) coated with Sigmacote (Sigma-Aldrich) to reduce surface tension as described elsewhere (19). […] The micropipette was lowered to a depth of 750 m measured from the dorsal surface of the cord, and 4-6 μL of the diluted amphiphile solution was injected at 1 L/min. […]
The motor function was evaluated with the locomotor open-field rating scale on the Basso Mouse Scale (BMS). […]

The nature of data set [2]: Diffusion ordered spectroscopy (DOSY), pulse-field gradient NMR. The format is physicochemical. The method, then:
The diffusion coefficients were measured by pulse-field gradient NMR using the longitudinal eddy-current delay with bipolar pulse pairs pulse sequence with a maximum gradient strength of 53.5 G/cm and 16 values for the gradient strength. The peak intensity I was measured and fit to the Stejskal-Tanner equation: […]
where I0 is the intensity in the absence of the gradient pulse, D is the diffusion coefficient, γ is the proton gyromagnetic ratio, g is the gradient strength, δ is the length of the pulse field gradient pulse (2 ms) and Δ is the diffusion delay (0.1 s).
The […] was calculated from the Stokes-Einstein equation as: […]
where kB is the Boltzmann constant, T is the temperature, and f is the viscosity.
PA materials were mixed (90 mol % of IKVAV PA2+10 mol % FGF2 PAs) and sonicated as described above and then lyophilized. Samples were then dissolved in D2O water and solubilized in 1 equiv. NaOD at a concentration of 6 mM in standard 5 mm NMR tube with 0.25 mM sodium trimethylsilylpropanesulfonate (DSS) as a chemical shift reference and an intensity standard. […] Diffusion coefficients were measured using pulse-field gradient NMR using the stimulated echo pules sequence with a 2 ms gradient pulse and a 100 ms diffusion delay time using a maximum gradient strength of 53 G/cm.

Data set [3] concerns murine model of severe spinal cord injury (SCI). As to the kind of experiment: Angiogenesis at the site of SCI (DiI labelling, BrdU/CD31). In kind it is in vivo, mouse. The method, then:
as §1, §2
To assess in vitro tubulogenesis and in vivo angiogenesis, an ImageJ (Fiji) script was established to automatically calculate 1) area fraction of blood vessels, 2) blood vessels length, and 3) number of branches. Images were processed, binarized and analyzed. […]

With C16-A2G2E4GIKVAV [IKVAV PA2], the “BMS open field locomotor score” value in data set [1] is recorded as 4.3±0.5. Further, the Rh in data set [2] (calculated from Stokes-Einstein equation) was 1.4 nm. Further, the D in data set [2] (diffusion coefficient, DOSY) is reported as 1.6 ± 0.01 × 10^−10 m^2/s. For the same substance, the “newly formed blood vessels (number of BrdU+/CD31+ cells)” value in data set [3] (12 weeks after injury) is reported as “very modest but yet significantly increased”. In addition, the “vascular area fraction, vascular length, and branching” value in data set [3] (DiI-labelled vessels, transverse sections) is listed as “did not differ significantly”.
